From paper PMC7958344, “Development of Novel Inhibitors Targeting the D-Box of the DNA Binding Domain of Androgen Receptor” (International Journal of Molecular Sciences, 2021) come the findings set out here.

Data set [1] deals with T1, AR-V7 (Homo sapiens, UniProt P10275).
T1 construct: expressed in transfected cells
T1 sequence (P10275 1-644 isoform P10275-3): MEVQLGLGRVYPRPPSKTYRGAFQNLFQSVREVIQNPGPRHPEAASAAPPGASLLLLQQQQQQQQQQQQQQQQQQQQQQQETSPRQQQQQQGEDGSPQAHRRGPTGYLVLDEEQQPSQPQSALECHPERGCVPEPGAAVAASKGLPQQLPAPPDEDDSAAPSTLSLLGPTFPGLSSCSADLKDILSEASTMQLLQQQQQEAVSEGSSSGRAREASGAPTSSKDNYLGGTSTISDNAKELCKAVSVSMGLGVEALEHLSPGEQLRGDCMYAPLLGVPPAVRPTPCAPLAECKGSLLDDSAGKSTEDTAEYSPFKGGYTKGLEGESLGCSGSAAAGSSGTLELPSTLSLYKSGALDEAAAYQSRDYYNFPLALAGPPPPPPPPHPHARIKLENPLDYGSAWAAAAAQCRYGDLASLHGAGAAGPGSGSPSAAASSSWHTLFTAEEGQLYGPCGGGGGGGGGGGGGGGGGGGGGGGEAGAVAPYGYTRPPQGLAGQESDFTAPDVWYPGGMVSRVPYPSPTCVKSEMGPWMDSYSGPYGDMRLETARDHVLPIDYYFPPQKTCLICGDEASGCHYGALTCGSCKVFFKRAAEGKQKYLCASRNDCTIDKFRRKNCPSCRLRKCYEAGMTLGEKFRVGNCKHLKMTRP
Kind of data set: AR-V7 transcriptional activity, doxycycline-inducible AR-V7 with ARR3tk-nanoLuciferase reporter in PC3 cells. Format: cell-based. The following applies: for IC50: PC3 doxycycline-inducible AR-V7, ARR3tk-nanoLuciferase reporter, read-out: IC50 for the inhibition of the AR-V7 transcription; for inhibition at 10 µM: PC-3, Supplementary Table 1, read-out: Inhibition Dox-V7 (10 μM). The source says:
Compounds were first screened for their inhibition of AR-V7 transcriptional activity. To do so, we created a PC3 cell-based population that stably encodes (i) a doxycycline-inducible AR-V7 cDNA sequence (pLIX402 tet-inducible promoter, puromycin selection), and (ii) the ARR3tk-nanoLuciferase reporter construct. […] This allowed the screening of the compounds without using the error-prone method of transiently transfecting V7 and reporter constructs. The inhibition efficacy of compounds was measured using doxycycline treatment along with an increasing dose of compounds. From this screen, a panel of compounds was identified with some anti-dimerization activity (Supplementary Table S1). […] To rule out direct effects of the compounds on luciferase expression or PC3 cell viability, we used a PC3-dox inducible luciferase cell line in parallel.
LNCaP cells incorporating an AR2PB-eGFP reporter construct (2 × probasin) are previously described. eGFP and secreted PSA assays were performed as described. The mammalian two-hybrid assay was performed in PC3 cells by co-transfection of 15 ng pA-AR or pB-AR plasmids, with 12.5 ng PG5-NLuc reporter. PC3_iV7_3TKNluc or PC3_iNluc cells were seeded in DMEM +5% CSS at 5000 cells/well for 24 h, followed by adding doxycycline/compounds (18 h) and luminescence measurement. LNCaP and 22rv1 cells were starved in RPMI + CSS (48 h) before cell viability tests using the same conditions as above, followed by 30 μL/well PrestoBlue™ Reagent (1 h) and fluorescence measurement (TECAN F200).
On the technique in general: A reporter such as luciferase makes a cellular process visible.

Data set [2] deals with PC3 cell line. Kind of data set: Activity in the PC3 cell line. Format: cell-based. The following applies: off-target effects; result in words.

One may read the IC50 as the concentration at which inhibition is half-maximal. What is called inhibition is how much of the control response was suppressed. As for `O=C(NCc1cccc2ccccc12)NCC(O)(c1cccs1)c1cccs1` [VPC-17160], in data set [1], the IC50 turned out to be 6 µM and the inhibition at 10 µM is 70%. Besides, the “effect on the PC3 cell line” value in data set [2] is on record as “no effect”.
Take `CC(O)(CNC(=O)C=Cc1ccnc2ccccc12)c1ccsc1` (stereo not drawn) [VPC-17281]: in data set [1], the IC50 was 6 µM and the inhibition at 10 µM worked out at 70%. Further, the “effect on the PC3 cell line” value in data set [2] was “some activity”.
